Laboratory results published in paper PMC12519060, “The anabolic steroid stanozolol is a potent inhibitor of human MutT homolog 1” (Febs Letters, 2025).

How the values were obtained:
[1] = target: T1, hMTH1 (human MutT homolog 1) (Homo sapiens, UniProt P36639); design: gene NUDT1; settings: substrate dGTP 100 μM, 6 nM hMTH1, 10 mM Mg acetate, 1% DMSO, 22 °C, active site (crystal structure, metal free) buffer, no inhibition seen, bound not given
[2] = target: T1, hMTH1 (human MutT homolog 1); assay: modified Malachite Green assay with inorganic pyrophosphatase; format: biochemical; design: gene NUDT1; E. coli-optimised cDNA in pET28a(+), expressed in E. coli BL21(DE3); His-tag removed with thrombin; monomer

| Structure (SMILES) | no inhibition [1] | IC50 [2] [nM] |
| --- | --- | --- |
| C[C@]12CCC(=O)C[C@@H]1CC[C@@H]1[C@@H]2CC[C@]2(C)[C@@H](O)CC[C@@H]12 [Dihydrotestosterone] | while DHT did not show any inhibition of hMTH1 (Fig. S1) | – |
| C[C@]12Cc3c[nH]nc3C[C@@H]1CC[C@@H]1[C@@H]2CC[C@@]2(C)[C@H]1CC[C@]2(C)O [stanozolol] | – | 26 |
